Assay results as given in US8916595B2, “Plant disease controlling composition and method for controlling plant disease” (Sumitomo Chemical Company, Limited, priority 2010, dated 2014).

Test system: gray mold fungus (Botrytis cinerea)
Test: Cucumber leaf disk preventive test against gray mold fungus (spray inoculation, onset area rate)
Format: in vivo
Settings: single compound, 15° C., four days
Protocol: True leaf of cucumber is punched out with cork borer to 13 mm in diameter to prepare a leaf disk. In 24 well microwell plate that is dispensed with 1 ml 0.8% water agar, the leaf disk is placed such that the upper side of the leaf is in an upward direction. Thereto is added 20 micro liter a testing solution prepared by mixing a dimethyl sulfoxide solution of the present compound (racemate) and a dimethyl sulfoxide solution of benthiavalicarb to a predetermined concentration to treat the leaf disk.
After confirming that the testing medical solution is dried, conidium of gray mold fungus (Botrytis cinerea) is suspended into potato dextrose broth (DIFCO) in a density of about 10^5 conidium/mL and is then subjected to a spray inoculation. After leaving to stand the leaf disk in a growth chamber set up at 15° C. for four days, an onset area on the leaf is measured and then calculated an onset area rate (hereinafter, referred to as an onset area rate of treated group).
The same operation is carried out with 20 micro liter water instead of 20 micro liter a testing medicine solution to calculate an onset area rate (hereinafter, referred to an onset area rate of non-treated group).
A preventive value is calculated from the above onset area rate of treated group and the onset area rate of non-treated group by the following equation: Preventive value(%)=100×(A−B)/A
A: an onset area rate of treated group
B: an onset area rate of non-treated group
The same operations as described in Test Example 1 are carried out with iprovalicarb instead of benthiavalicarb, so as to calculate a preventive value.
Also for comparison, the same operations as described in Test Example 1 are carried out with the exception that the testing medicine solution is substituted with a predetermined concentration of each dimethyl sulfoxide solution of the present compound (racemate) or iprovalicarb, so as to calculate respective preventive values.
For comparison, the same operations as described in Test Example 1 are carried out with the exception that the testing medicine solution is substituted with a predetermined concentration of a dimethyl sulfoxide solution of benthiavalicarb, so as to calculate a preventive value.

[1] = treatment concentration 0.5 ppm
[2] = treatment concentration 5.0 ppm

SMILES | preventive value (%) [1] [%] | preventive value (%) [2] [%]
CC(C)[C@H](NC(=O)O)C(=O)N[C@H](C)c1nc2ccc(F)cc2s1 [benthiavalicarb] | 0 | 15
Cc1ccc(C(C)NC(=O)[C@@H](NC(=O)OC(C)C)C(C)C)cc1 (stereo partly shown) [iprovalicarb] | 0 | 15
